From patent US9314383B2, “Absorptive article” (UNICHARM CORPORATION, priority 2012, dated 2016)

Source text: The term “solubility” used herein in regard to water solubility includes cases where the sample completely dissolves in deionized water to form a homogeneous mixture, and cases where the sample is completely emulsified. Here, “completely” means that no mass of the sample remains in the deionized water.

| Structure (SMILES) | Water solubility (g) | Water solubility [g] |
| --- | --- | --- |
| CCCCCCCCCCCC(=O)OCC(O)CO (stereo not drawn) [90-L2 Lauric acid monoglyceride, lauric acid monoglyceride] | 20< g | – |
| CC(C)CCCCCCCCCCCCCCCOC(=O)CC(O)C(=O)OCCCCCCCCCCCCCCCC(C)C (stereo not drawn) [Diisostearyl malate] | 20< g | – |
| CCCCC(CC)C(=O)OCC(C)(C)COC(=O)C(CC)CCCC (stereo not drawn) [H-208BRS, Neopentyl glycol di(2-ethylhexanoate)] | – | <0.05 |
| CCCCC(CC)C(=O)OCC(COC(=O)C(CC)CCCC)OC(=O)C(CC)CCCC (stereo not drawn) [PANACET 800B] | – | <0.05 |
| CCCCCCCC(=O)OCC(COC(=O)CCCCCCC)OC(=O)CCCCCCC [PANACET 800] | – | <0.05 |
| CCCCOC(=O)CC(CC(=O)OCCCC)(OC(C)=O)C(=O)OCCCC [Tributyl O-acetylcitrate] | – | <0.05 |
